Measured values published in patent US8865656B2, “Beta-hairpin peptidomimetics having CXCR4 antagonizing activity” (Polyphor AG, priority 2009, dated 2014).
Where two headings read alike, the source gives them in different places. Starred links: 1 amine or outer side, 2 acyl side, 3 side chain; linkers in the order of their positions; H or OH if unused. Positions of bridges follow the written chain, without caps; N, C: chain ends. Non-standard residues stand in square brackets, D forms with d. Residues, ends and D or L forms follow the SMILES beside them. ξ: configuration not given here. X2 = O=C(CC[C@H](Cc1ccc(O)cc1)N[*:1])[*:2]; X1 = O=C(C(O)CCN[*:1])[*:2]; Dab = NCC[C@H](N)C(=O)O; ξT = CC(O)C(N)C(=O)O

Columns and labels:
[1] = test system: human red blood cells (hRBC); conditions: red cells of human, 1 h
Experimental: The peptides were tested for their hemolytic activity against human red blood cells (hRBC). Fresh hRBC were washed three times with phosphate buffered saline (PBS) and centrifuged for 10 min at 2000×g. Compounds (100 μM) were incubated with 20% hRBC (v/v) for 1 h at 37° C. The final erythrocyte concentration was approximately 0.9×10^9 cells/mL. A value of 0% and 100% cell lyses, respectively, was determined by incubation of hRBC in the presence of PBS alone and 0.1% Triton X-100 in H2O, respectively. The samples were centrifuged, the supernatants were 20-fold diluted in PBS buffer and the optical densities (OD) were measured at 540 nm.
Percent hemolysis was calculated as follows: (OD540peptide/OD540H2O)×100%.

human CXCR4 = molecular target: T1, human CXCR4 (Homo sapiens, UniProt P61073); assay: Ca2+-assay: CXCR4-antagonizing activity (SDF-1 induced calcium mobilization); type: cell-based; conditions: mouse pre-B cell line 300-19 stably transfected with human CXCR4, read-out: IC50% [nM] ± SD, CXCR4 receptor
T1 construct: expressed in transfected cells; host or cells: mouse pre-B cell line 300-19
From the text: 2.3. Ca^2+-Assay: CXCR4-Antagonizing Activity of the Peptides
Increases in intracellular calcium were monitored using a Flexstation 384 (Molecular Devices, Sunnyvale, Calif.) to assay the depsipeptides for CXCR4 antagonism in a mouse pre-B cell line 300-19 stably transfected with human CXCR4 (E. Oberlin, A. Amara, F. Bachelerie, C. Bessia, J.-L. Virelizier, F. Arenzana-Seisdedos, O. Schwartz, J.-M. Heard, I. Clark-Lewis, D. F. Legler, M. Loetscher, M. Baggiolini, B. Moser, Nature 1996, 382, 833-835; M. Loetscher, T. Geiser, T. O'Reilly, R. Zwalen, M. Baggiolini, B. Moser, J. Biol. Chem. 1994, 269, 232-237; M. D'Apuuo, A. Rolink, M. Loetscher, J. A. Hoxie, I. Clark-Lewis, F. Melchors, M. Baggiolini, B. Moser, Eur. J. Immunol. 1997, 27, 1788-1793). The cells were batch loaded with the Calcium 4 Assay kit (Molecular Devices) in assay buffer (Hanks Balanced salt solution [HBSS], 20 mM HEPES, pH 7.4, 0.1% BSA) for 1 h at room temperature and labeled cells were dispensed into black 96 well assays plates (Costar No. 3603). Calcium mobilization induced by stromal-derived factor-1 (SDF-1) was measured in the Flexstation 384 (excitation: 485 nm; emission: 525 nm) for 90 seconds. Antagonist activity of peptides was determined by spiking the cells with compounds prior to SDF-1 addition. Dose response curves (compound concentration versus % maximum response for SDF-1) were determined for each antagonist and IC50 values were calculated by fitting the data to a four parameter logistic equation using SoftmaxPro 4.8 (Molecular Devices).

in vitro [2] = type: cell-based
Experimental: (§1) The cytotoxicity of the depsipeptides to HELA cells (Acc57) and COS-7 cells (CRL-1651) was determined using the MTT reduction assay (T. Mossman, J. Immunol. Meth. 1983, 65, 55-63; M. V. Berridge, A. S. Tan, Arch. Biochem. Biophys. 1993, 303, 474-482). Briefly, the method was as follows: 7000 HELA cells/well and 4500 COS-7 cells/well were seeded and grown in 96-well microtiter plates for 24 h at 37° C. at 5% CO2. Thereafter, time zero (Tz) was determined by MTT reduction (see below). The supernatant of the remaining wells was discarded, and fresh medium and compounds in serial dilutions (12.5, 25 and 50 μM, triplicates) were pipetted into the wells. After incubation of the cells for 48 h at 37° C. at 5% CO2 the supernatant was discarded again and 100 μL MTT reagent (0.5 mg/mL in RPMI1640 and DMEM, respectively)/well was added. Following incubation at 37° C. for 2 h the media were aspirated and the cells were spiked (100 μL isopropanol/well). The absorbance of the solubilized formazan was measured at 595 nm (OD595peptide). For each concentration averages were calculated from triplicates. The percentage of growth was calculated as follows: (OD595peptide-OD595Tz-OD595Empty well)/(OD595Tz-OD595Empty well)×100%. The GI50 (Growth Inhibition) concentrations were calculated for each depsipeptide by using a trend line function for the concentrations (50, 25, 12.5 and 0 μM), the corresponding percentages and the value 50, (=TREND (C50:C0, %50:%0, 50).

in vitro [3] = type: cell-based; remark: listed apart in the source
Experimental: as §1

[4] = Plasma stability in human plasma
Experimental: (§2) The stability of the peptides in human and mouse plasma was determined by applying the following method: 315 μL/deep well of freshly thawed human plasma (Basler Blutspende-dienst) and mouse plasma (Harlan Sera-Lab, UK), respectively, were spiked with 35 μL/well of compound in PBS (100 μM, triplicate) and incubated at 37° C. […] Following shaking for 2 min the occurred suspensions were filtrated by vacuum and finally, 100 μL of each filtrate were transferred to a propylene microtiter plate, and analyzed by LC/MS as follows: Column: Waters, XBridge C18, mobile phases: (A) water+0.1% formic acid and (B) acetonitrile/water, 95/5 (v/v)+0.1% formic acid, gradient: 5%-100% (B) in 2 minutes, electrospray ionization, MRM detection (triple quadrupole). The peak areas were determined and triplicate values are averaged. The stability is expressed in percent of the initial value at t=0. (tx/to×100). By using the TREND function of EXCEL (Microsoft Office 2003) T1/2 were determined.

[5] = Plasma stability in mouse plasma
Experimental: as §2

[6] = human plasma, 37° C., sampling up to 240 min
[7] = mouse plasma, 37° C., sampling up to 240 min

T1 sequence (P61073 whole entry): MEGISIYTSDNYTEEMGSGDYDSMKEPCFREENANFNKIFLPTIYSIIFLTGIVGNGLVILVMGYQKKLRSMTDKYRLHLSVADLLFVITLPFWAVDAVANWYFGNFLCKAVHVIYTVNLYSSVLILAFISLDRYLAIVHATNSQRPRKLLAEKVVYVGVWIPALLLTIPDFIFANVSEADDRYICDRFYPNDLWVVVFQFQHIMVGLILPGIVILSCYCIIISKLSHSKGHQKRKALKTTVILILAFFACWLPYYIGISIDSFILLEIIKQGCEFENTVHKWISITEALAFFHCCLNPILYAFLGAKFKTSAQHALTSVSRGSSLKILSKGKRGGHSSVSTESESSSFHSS

For `C[C@@H]1NC(=O)[C@H](Cc2c[nH]cn2)NC(=O)[C@H](Cc2ccc(O)cc2)NC(=O)[C@@H]2CCCN2C(=O)[C@@H](Cc2ccncc2)NC(=O)[C@H](CCCCN)NC(=O)[C@H](CCC(N)=O)NC(=O)[C@H](Cc2ccc(O)cc2)NC(=O)[C@@H]2CSSC[C@H](NC1=O)C(=O)N[C@@H](CO)C(=O)N[C@@H](C)C(=O)N1CCC[C@@H]1C(=O)N[C@@H](CCN)C(=O)N[C@@H](CCCNC(=N)N)C(=O)N[C@@H](Cc1ccc(O)cc1)C(=O)N2` [compound 6], the “Hemolysis at 100 μM” value [1] was 2.4%, the IC50 (human CXCR4) was 0.17 ± 0.1 nM and the GI50 (in vitro [2]; human) was > 50 µM. The GI50 (in vitro [3]; African green monkey) was > 50 µM, the “Plasmastability human pl. T1/2” value [4, 6] was 4 h and the “Plasmastability mouse pl. T1/2” value [5, 7] was 4 h.
With `CC(O)C1NC(=O)[C@@H]2CSSC[C@H](NC(=O)[C@H](Cc3ccc(O)cc3)NC(=O)[C@H](CCCNC(=N)N)NC(=O)[C@H](CCN)NC(=O)[C@H]3CCCN3C(=O)[C@H](C)NC1=O)C(=O)N[C@@H](Cc1ccc(O)cc1)C(=O)N[C@@H](CCC(N)=O)C(=O)N[C@@H](CCCCN)C(=O)N1CCC[C@@H]1C(=O)N1CCC[C@H]1C(=O)N[C@@H](Cc1ccc(O)cc1)C(=O)N[C@@H](Cc1c[nH]cn1)C(=O)N[C@@H](C)C(=O)N2` (some centres unmarked) [compound 17] (cyclo(YHAC[ξT]A[dP][Dab]RYCYQK[dP]P); disulfide 4-11) the “Hemolysis at 100 μM” value [1] was 1%, the GI50 (in vitro [2]) was > 50 µM and the GI50 (in vitro [3]) was > 50 µM. The “Plasmastability human pl. T1/2” value [4, 6] was 4 h and the “Plasmastability mouse pl. T1/2” value [5, 7] was 4 h.
For `C[C@@H]1NC(=O)[C@H](Cc2c[nH]cn2)NC(=O)[C@H](Cc2ccc(O)cc2)NC(=O)[C@@H]2CCCN2C(=O)[C@H]2CCCN2C(=O)[C@H](CCCCN)NC(=O)[C@H](CCC(N)=O)NC(=O)[C@H](Cc2ccc(O)cc2)NC(=O)[C@@H]2CSSC[C@H](NC1=O)C(=O)NCCC(O)C(=O)N[C@@H](C)C(=O)N1CCC[C@@H]1C(=O)N[C@@H](CCN)C(=O)N[C@@H](CCCNC(=N)N)C(=O)N[C@@H](Cc1ccc(O)cc1)C(=O)N2` (some centres unmarked) [compound 19] (cyclo(YHAC[X1]A[dP][Dab]RYCYQK[dP]P); disulfide 4-11), the “Hemolysis at 100 μM” value [1] was 1.8%, the IC50 (human CXCR4) was 1.1 ± 0.6 nM and the GI50 (in vitro [2]) was > 50 µM. For the same molecule, the GI50 (in vitro [3]) was > 50 µM, the “Plasmastability human pl. T1/2” value ([4]; human, plasma) was 4 h and the “Plasmastability mouse pl. T1/2” value ([5]; mouse, plasma) was 4 h.
With `C[C@@H]1NC(=O)[C@H](Cc2c[nH]cn2)NC(=O)[C@H](Cc2ccc(O)cc2)NC(=O)[C@@H]2CCCN2C(=O)[C@@H](CCCCN)N(C)C(=O)[C@H](CCCCN)NC(=O)[C@H](CCC(N)=O)NC(=O)[C@H](Cc2ccc(O)cc2)NC(=O)[C@@H]2CSSC[C@H](NC1=O)C(=O)N[C@@H](CO)C(=O)N[C@@H](C)C(=O)N1CCC[C@@H]1C(=O)N[C@@H](CCN)C(=O)N[C@@H](CCCNC(=N)N)C(=O)N[C@@H](Cc1ccc(O)cc1)C(=O)N2` [compound 8] the “Hemolysis at 100 μM” value [1] was 0.3%, the IC50 (human CXCR4) was 0.31 ± 0.2 nM and the GI50 (in vitro [2]; human) was > 50 µM. For the same molecule, the GI50 (in vitro [3]; African green monkey) was > 50 µM, the “Plasmastability human pl. T1/2” value [4, 6] was 4 h and the “Plasmastability mouse pl. T1/2” value [5, 7] was 4 h.
With `C[C@@H]1NC(=O)[C@H](Cc2c[nH]cn2)NC(=O)[C@H](Cc2ccc(O)cc2)NC(=O)[C@@H]2CCCN2C(=O)[C@@H](CC2CCCCC2)NC(=O)[C@H](CCCCN)NC(=O)[C@H](CCC(N)=O)NC(=O)[C@H](Cc2ccc(O)cc2)NC(=O)[C@@H]2CSSC[C@H](NC1=O)C(=O)N[C@@H](CO)C(=O)N[C@@H](C)C(=O)N1CCC[C@@H]1C(=O)N[C@@H](CCN)C(=O)N[C@@H](CCCNC(=N)N)C(=O)N[C@@H](Cc1ccc(O)cc1)C(=O)N2` [Ex. 1] the “Hemolysis at 100 μM” value [1] was 0%, the IC50 (human CXCR4) was 1.3 ± 0.4 nM and the GI50 (in vitro [2]; human) was > 50 µM. For the same molecule, the GI50 (in vitro [3]; African green monkey) was > 50 µM, the “Plasmastability human pl. T1/2” value [4, 6] was 4 h and the “Plasmastability mouse pl. T1/2” value [5, 7] was 4 h.
In the case of `CC[C@@H](C)[C@H]1NC(=O)[C@H](CCCCN)NC(=O)[C@H](CCC(N)=O)NC(=O)[C@H](Cc2ccc(O)cc2)NC(=O)[C@@H]2CSSC[C@H](NC(=O)[C@H](C)NC(=O)[C@H](Cc3c[nH]cn3)NC(=O)[C@H](Cc3ccc(O)cc3)NC(=O)[C@@H]3CCCN3C1=O)C(=O)N[C@@H](CO)C(=O)N[C@@H](C)C(=O)N[C@H](Cc1c[nH]c3ccccc13)C(=O)N[C@@H](CCN)C(=O)N[C@@H](CCCNC(=N)N)C(=O)N[C@@H](Cc1ccc(O)cc1)C(=O)N2` [compound 11], the “Hemolysis at 100 μM” value [1] is reported as 1.7%, the IC50 (human CXCR4) is reported as 0.17 ± 0.02 nM and the GI50 (in vitro [2]; human) is reported as > 50 µM. For the same molecule, the GI50 (in vitro [3]; African green monkey) was > 50 µM, the “Plasmastability human pl. T1/2” value [4, 6] was 4 h and the “Plasmastability mouse pl. T1/2” value [5, 7] was 4 h.
For `C[C@@H]1NC(=O)[C@H](Cc2c[nH]cn2)NC(=O)[C@H](Cc2ccc(O)cc2)NC(=O)[C@@H]2CCCN2C(=O)CN(CCCCN)C(=O)[C@H](CCCCN)NC(=O)[C@H](CCC(N)=O)NC(=O)[C@H](Cc2ccc(O)cc2)NC(=O)[C@@H]2CSSC[C@H](NC1=O)C(=O)N[C@@H](CO)C(=O)N[C@@H](C)C(=O)N1CCC[C@@H]1C(=O)N[C@@H](CCN)C(=O)N[C@@H](CCCNC(=N)N)C(=O)N[C@@H](Cc1ccc(O)cc1)C(=O)N2` [compound 9], the “Hemolysis at 100 μM” value [1] was 2.1%, the IC50 (human CXCR4) was 0.09 ± 0.05 nM and the GI50 (in vitro [2]; human) was > 50 µM. The GI50 (in vitro [3]; African green monkey) was > 50 µM, the “Plasmastability human pl. T1/2” value [4, 6] was 4 h and the “Plasmastability mouse pl. T1/2” value [5, 7] was 4 h.
With `C[C@@H]1NC(=O)[C@H](Cc2c[nH]cn2)NC(=O)CC[C@H](Cc2ccc(O)cc2)NC(=O)[C@@H]2CCCN2C(=O)[C@H]2CCCN2C(=O)[C@H](CCCCN)NC(=O)[C@H](CCC(N)=O)NC(=O)[C@H](Cc2ccc(O)cc2)NC(=O)[C@@H]2CSSC[C@H](NC1=O)C(=O)N[C@@H](CO)C(=O)N[C@@H](C)C(=O)N1CCC[C@@H]1C(=O)N[C@@H](CCN)C(=O)N[C@@H](CCCNC(=N)N)C(=O)N[C@@H](Cc1ccc(O)cc1)C(=O)N2` [compound 18] (cyclo([X2]HACSA[dP][Dab]RYCYQK[dP]P); disulfide 4-11) the “Hemolysis at 100 μM” value [1] was 1.4%, the IC50 (human CXCR4) was 0.39 ± 0.5 nM and the GI50 (in vitro [2]; human) was > 50 µM. The GI50 (in vitro [3]; African green monkey) was > 50 µM, the “Plasmastability human pl. T1/2” value ([4]; human, plasma, 10 μM) was 4 h and the “Plasmastability mouse pl. T1/2” value ([5]; mouse, plasma, 10 μM) was 4 h.
